# Data taken from the Kinase Knowledgebase extract (Sharma et al. 2016).
# Biological target: EGFR (UniProt P00533)
# Settings: not given
# Chain of EGFR (P00533 whole entry, looked up): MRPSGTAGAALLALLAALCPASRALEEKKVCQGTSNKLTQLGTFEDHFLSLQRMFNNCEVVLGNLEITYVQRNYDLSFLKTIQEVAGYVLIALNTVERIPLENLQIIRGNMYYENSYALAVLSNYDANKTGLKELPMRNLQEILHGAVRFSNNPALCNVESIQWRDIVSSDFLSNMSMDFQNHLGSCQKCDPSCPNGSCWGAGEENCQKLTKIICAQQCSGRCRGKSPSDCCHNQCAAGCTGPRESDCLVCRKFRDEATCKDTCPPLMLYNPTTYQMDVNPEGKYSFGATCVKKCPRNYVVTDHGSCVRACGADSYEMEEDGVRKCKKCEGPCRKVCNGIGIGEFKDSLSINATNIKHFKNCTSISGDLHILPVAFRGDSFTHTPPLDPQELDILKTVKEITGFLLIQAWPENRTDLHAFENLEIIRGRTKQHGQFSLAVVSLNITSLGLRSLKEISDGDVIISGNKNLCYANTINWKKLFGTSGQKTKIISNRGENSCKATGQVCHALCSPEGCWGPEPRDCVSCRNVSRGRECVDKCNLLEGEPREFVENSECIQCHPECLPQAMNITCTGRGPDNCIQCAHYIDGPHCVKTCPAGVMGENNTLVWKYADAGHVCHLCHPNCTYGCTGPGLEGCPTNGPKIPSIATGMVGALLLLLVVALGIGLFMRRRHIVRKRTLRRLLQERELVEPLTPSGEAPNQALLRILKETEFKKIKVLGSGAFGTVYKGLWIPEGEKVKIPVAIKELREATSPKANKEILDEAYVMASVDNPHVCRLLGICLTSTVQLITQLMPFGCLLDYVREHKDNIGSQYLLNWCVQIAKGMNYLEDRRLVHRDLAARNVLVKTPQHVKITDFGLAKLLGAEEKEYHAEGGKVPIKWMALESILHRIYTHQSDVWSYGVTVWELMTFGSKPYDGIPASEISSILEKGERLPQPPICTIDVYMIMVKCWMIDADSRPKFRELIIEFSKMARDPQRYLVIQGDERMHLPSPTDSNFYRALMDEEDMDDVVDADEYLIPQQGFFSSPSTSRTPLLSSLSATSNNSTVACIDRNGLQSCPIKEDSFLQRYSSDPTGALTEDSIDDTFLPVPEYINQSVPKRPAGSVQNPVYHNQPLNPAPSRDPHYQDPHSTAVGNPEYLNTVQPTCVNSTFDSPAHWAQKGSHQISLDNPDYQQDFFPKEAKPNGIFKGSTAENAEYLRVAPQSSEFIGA
row,IC50 [µM],SMILES
1,< 0.1,CN(CC(N)=O)Cc1ccc2ncnc(Nc3ccc4c(cnn4Cc4ccccc4)c3)c2c1
2,< 0.1,CS(=O)(=O)CCNCc1ccc2ncnc(Nc3ccc4c(cnn4Cc4ccccc4)c3)c2c1
3,< 0.1,NC(=O)[C@@H]1CCCN1Cc1ccc2ncnc(Nc3ccc4c(cnn4Cc4ccccc4)c3)c2c1
4,0.1 to 1,CC(C)(C)OC(=O)[C@H]1CCCN1Cc1ccc2ncnc(Nc3ccc4c(cnn4Cc4ccccc4)c3)c2c1
5,< 0.1,O=C(O)CNCc1ccc2ncnc(Nc3ccc4c(cnn4Cc4ccccc4)c3)c2c1
6,< 0.1,NC(=O)CNCc1ccc2ncnc(Nc3ccc4c(cnn4Cc4ccccc4)c3)c2c1

# Biological target: EGFR (human) (UniProt P00533)
# Sequence (P00533 whole entry, looked up): as above
# Settings: hn5
row,IC50 [µM],SMILES
1,5 to 25,CS(=O)(=O)CCNCCCOc1ccc2ncnc(Nc3ccc(OCc4ccccc4)cc3)c2c1
2,< 5,CN(CCCOc1ccc2ncnc(Nc3ccc(OCc4ccccc4)cc3)c2c1)CCS(C)(=O)=O
3,< 5,CS(=O)(=O)CCNCCCCOc1ccc2ncnc(Nc3ccc(S(=O)(=O)c4ccccc4)cc3)c2c1
4,5 to 25,CS(=O)(=O)CCNCCCCOc1ccc2ncnc(Nc3ccc(OCc4cccc(F)c4)c(Cl)c3)c2c1
5,< 5,CS(=O)(=O)CCNCCCCOc1ccc2ncnc(Nc3ccc(OCc4ccccc4)cc3)c2c1
